In US20040086891A1, “Dehydrogenase oligomeric modulators” (priority 1998, published 2004):
Entries after “also recorded” stand apart in the source; their conditions may differ.

Tests used:
GAPDH [1] = biological target: T1, GAPDH (Homo sapiens, UniProt P04406); assay: Size exclusion chromatography of the oligomeric state of GAPDH; format: biochemical; conditions: for oligomeric state of GAPDH bound to poly-U RNA: size exclusion chromatography, GAPDH largely tetrameric without compound; for oligomeric state of GAPDH in the presence of SDS: sodium dodecyl sulfate added, untreated protein becomes monomeric
Experimental: A dehydrogenase oligomeric modulator is identified using size exclusion chromatographic (SEC) techniques. A test compound is tested for its ability to prevent tetramer formation of GAPDH and compounds capable of preventing or inhibiting such formation are identified as DOMs. SEC is used to determine if potential compounds affect the oligomeric state of GAPDH (or any oligomeric protein) when contacted with GAPDH under conditions which promote oligomer formation. This method can be further refined and sped up (i.e., faster data collection) by using SEC-high performance liquid chromatographic (SEC-HPLC) methods. An example is set forth below.
A column was made using a disposable 1 cm diameter column (BIORAD). The chosen matrix for the column was Sephacryl H-300 (PHARMACIA). The column was poured by mixing the beads (SEPHACRYL) in a buffer and layering into the column until the bed was about 12 cm long. The buffer used was 50 mM TRIS—HCl, pH 8.0. The column was then washed with the same buffer for 10 column volumes.
A selection.of protein standards of known molecular weight was run through the column.
Once the column is calibrated, the molecular weight of the eluted fractions (in this case, GAPDH monomers, dimers and tetramers) may be determined.
Prior to moving the proteins to the column they are contacted with candidate compound and mixed at room temperature in, e.g., nanomolar concentrations under conditions known to those skilled in the art.
The mixture prepared above is then added to the column and eluted with 50 mM TRIS—HCl pH 8.0 buffer. 500 μl fractions of the eluent are collected. The optical density of the fractions is then determined, e.g., at 280 nm, and an elution profile prepared and analyzed to determine the extent of oligomerization.
GAPDH is a tetramer consisting of four identical monomers (FIG. 1). The tetramer exists in equilibrium between tetramers, dimers and monomers. This equilibrium strongly favors the tetrameric form. Upon tetramer formation, there is a channel present between the four monomers. […] As such, the ability of (−)-desmethyldeprenyl and CGP3466 to decrease GAPDH tetramer and increase GAPDH dimer in vitro identifies these compounds as oligomeric modulators of GAPDH.

PC12 cells = assay: Subcellular localization of GAPDH in PC12 cells entering apoptosis (immunocytochemistry, LCSM); format: cell-based; conditions: early apoptosis, 3-12 hours after serum and NGF withdrawal
Excerpt: (§1) The subcellular localization of GAPDH in PC12 cells entering apoptosis using immunocytochemistry and LCSM has been studied.

GAPDH [2] = assay: GAPDH protein levels in early apoptosis after trophic withdrawal; format: cell-based; conditions: increase begins 1.5 to 2.0 hours after trophic withdrawal
Excerpt: (§2) As well as the nuclear translocation, GAPDH levels increase rapidly in the early phases of apoptosis. […] At least three molecules associated with toxin-induced neuronal apoptosis—nitric oxide, superoxide radical and peroxynitrite—have the capacity to free GAPDH from AU-rich RNA (Beckman and Koppenol, 1996). Nitric oxide modifies the structure of GAPDH and appears to free it from AU-rich RNA (Brune and Lapetina, 1995; Brune and Lapetina, 1996; Itoga et al., 1997; McDonald and Moss, 1994). Oxygen free radicals enhance the binding of NAD^+ to GAPDH (Marin et al., 1995). If, in fact, GAPDH translocation to the nucleus does initiate or facilitate apoptosis, then ROS and NO may induce apoptosis through GAPDH.

GAPDH [3] = biological target: T1, GAPDH; assay: Antibody blocking experiment for drug binding in the GAPDH channel; conditions: protein first treated with antibody, then drug
Experimental: Antibody blocking experiments were conducted to confirm that CGP3466 bound GAPDH in the channel. In FIG. 2, GAPDH is shown in blue with the site for an antibody which was raised to a certain part of GAPDH is green.

GAPDH [4] = biological target: T1, GAPDH; assay: Photoaffinity binding and BODIPY-labelled CGP3466 protein binding study; conditions: photoaffinity binding techniques, BODIPY chromogen
Excerpt: It was also shown that there was an increase in GAPDH levels found in early apoptosis. Photoaffinity binding techniques and a BODIPY chromogen attached to dibenzo[bf]oxepin-10-ylmethyl-prop-2-ynyl-amine (CGP3466), were used to study the protein and subcellular binding of (−)-desmethyldeprenyl (DES) and CGP3466.

fibroblasts = assay: GAPDH nuclear translocation in fibroblasts treated with NAD+; format: cell-based
GAPDH [5] = biological target: T1, GAPDH; assay: Release of GAPDH from AU-rich RNA and glycolytic activity; format: biochemical
Excerpt: as §2

COS and Hek cells = assay: GAPDH-GFP fusion protein localization in living COS and Hek cells (LCSM); format: cell-based; conditions: first two hours after exposure
Excerpt: GAPDH cDNA was cloned from rat brain using oligonucleotides designed to the 5′- and 3′-ends of the coding region of rat GAPDH with PCR. The cDNA was used to produce a GAPDH-green fluorescent protein (GFP) construct by adding a 3′ oligo (Gly)s to the C-terminus of GAPDH followed by a BamHI site to allow subcloning, in frame, into pEGFP-1 (Clontech). The resulting construct contains GAPDH followed by (Gly)5 and enhanced GFP. The insert was subcloned into the Hindlil-Notl sites of pcDNA3. The GAPDH-GFP construct has been transiently transfected into COS1 cells and stably transfected into HEK 293 cells.
Apoptosis was induced in the living COS and Hek cells maintained in a physiological chamber on LCSM. […] These experiments established that GAPDH nuclear translocation occurs dynamically during the very early stages of apoptosis and indicate that GAPDLH participates in the initiation phase of apoptosis.

GAPDH [6] = biological target: T1, GAPDH; conditions: cited from earlier work
NG108-15 cells = conditions: cited from earlier work
[7] = tested on: partially differentiated PC12 cells or fibroblasts; assay: Apoptosis and GAPDH nuclear translocation after NO donor treatment; format: cell-based
Excerpt: as §1

T1 sequence (P04406 whole entry, species assumed): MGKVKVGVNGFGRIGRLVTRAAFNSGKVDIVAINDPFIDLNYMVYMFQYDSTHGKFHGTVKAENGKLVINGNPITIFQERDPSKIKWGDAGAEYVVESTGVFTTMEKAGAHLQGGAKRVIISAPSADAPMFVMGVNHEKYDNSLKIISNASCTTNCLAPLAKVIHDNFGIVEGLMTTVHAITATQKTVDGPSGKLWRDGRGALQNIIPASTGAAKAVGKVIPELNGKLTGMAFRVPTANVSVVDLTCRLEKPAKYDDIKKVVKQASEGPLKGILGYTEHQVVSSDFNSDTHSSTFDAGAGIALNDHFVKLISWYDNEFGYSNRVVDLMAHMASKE

Compound: C#CCNCC1=Cc2ccccc2Oc2ccccc21 [CGP3466, dibenzo[bf]oxepin-10-ylmethyl-prop-2-ynyl-amine]
- effect on the GAPDH tetramer (GAPDH [1]): disrupt the tetramer forming dimers
- oligomeric state of GAPDH bound to poly-U RNA (GAPDH [1]): converted to a dimer
- oligomeric state of GAPDH in the presence of SDS (GAPDH [1]): convert it to a dimer
- oligomeric state of GAPDH in the presence of SDS (GAPDH [1]; listed as CGP 3466): remains dimeric
- nuclear translocation (relocation) of GAPDH (PC12 cells): prevent the nuclear relocation of GAPDH; also recorded: blocked the nuclear translocation
- increase in GAPDH protein levels in early apoptosis (GAPDH [2]): prevent the increase
- drug binding to GAPDH after pre-treatment with antibody to the channel site (GAPDH [3]): no binding
- binding to GAPDH (GAPDH [4]): bind to GAPDH
- proteins bound (GAPDH [4]): tubulin, actin, synapsin and GAPDH

Compound: NC(=O)c1ccc[n+]([C@@H]2O[C@H](COP(=O)([O-])OP(=O)(O)OC[C@H]3O[C@@H](n4cnc5c(N)ncnc54)[C@H](O)[C@@H]3O)[C@@H](O)[C@H]2O)c1 [NAD^+]
- nuclear translocation of GAPDH (fibroblasts): induced the dense translocation of GAPDH to the nucleus
- GAPDH glycolytic activity (GAPDH [5]): increases the enzyme's glycolytic activity
- release of GAPDH from AU-rich RNA (GAPDH [5]): releases GAPDH from AU-rich RNA

Compound: O=C([O-])c1c(Cl)c(Cl)c(Cl)c(Cl)c1-c1c2cc(I)c(=O)c(I)c-2oc2c(I)c([O-])c(I)cc12.[Na+].[Na+] [Rose Bengal]
- localization of GAPDH-GFP fusion protein (COS and Hek cells): concentrate in the nucleus of a proportion of the cells

Compound: CC(C)[C@H]1CC[C@@]2(CO2)[C@H]2C(=O)OCC(C(=O)O)=C[C@H]12 [Koningic acid]
- GAPDH glycolytic function (GAPDH [6]): inhibits GAPDH glycolytic function
- induction of apoptosis (NG108-15 cells): induces apoptosis

Compound: CC(=O)N[C@@H](C(=O)O)C(C)(C)SN=O (racemic) [SNAP]
- induction of apoptosis [7]: induced apoptosis

Compound: C#CCNC(C)Cc1ccccc1 (single isomer, unassigned; (-)) [(−)-desmethyldeprenyl]
- effect on the GAPDH tetramer (GAPDH [1]): disrupt the tetramer forming dimers
- oligomeric state of GAPDH bound to poly-U RNA (GAPDH [1]): converted to a dimer
- oligomeric state of GAPDH in the presence of SDS (GAPDH [1]): remains dimeric
- oligomeric state of GAPDH in the presence of SDS (GAPDH [1]; listed as DES): convert it to a dimer
- nuclear translocation (relocation) of GAPDH (PC12 cells): prevent the nuclear relocation of GAPDH
- nuclear translocation (relocation) of GAPDH (PC12 cells; listed as DES): blocked the nuclear translocation
- increase in GAPDH protein levels in early apoptosis (GAPDH [2]): prevent the increase
- binding to GAPDH (GAPDH [4]): bind to GAPDH

Compound: CC(=O)N[C@@H](CS)C(=O)O [NAC, N-acetyl cysteine]
- increase in GAPDH protein levels in early apoptosis (GAPDH [2]): prevent the increase
